Test results taken from US5668182A, “Method of calming or sedating an animal with a hydroxy benzaldehyde compound” (priority 1996, dated 1997).

How the values were obtained:
mice [1] = assay: Metrazol-induced seizures in mice (Example 5); type: in vivo; details: for Death: Metrazol 90 mg/kg i.p. (vehicle 0/6); for Tonic Convulsion: Metrazol 90 mg/kg i.p. (vehicle 6/6)
Description: (§1) Mice were treated with vanillin (100, 200, or 300 mg/kg) or saline (0.9% NaCl) by i.p. injection. The treatment was followed either by injection of pentylenetetrazol ("Metrazol"), 80 or 90 mg/kg by i.p. injection (given 5 minutes after vanillin) or by exposure to a 1-second pulse of shock through electrodes clamped to the ears (5 minutes after vanillin). The end-points for both tests were the occurrence of a tonic (extensor) convulsion and/or death. Six mice were used per group for the Metrazol-induced seizure test, and five mice were used per group for the electroshock-induced seizure test.

man = details: in man; cited from earlier work
mice [2] = assay: Electroshock-induced seizures in mice (Example 5); type: in vivo; details: vanillin 300 mg/kg i.p.
Description: as §1

rats [3] = assay: Behavioral depression in rats after i.v. infusion (Example 1); type: in vivo; details: for Grip Absent (number of rats): first figure of cell; for Grip Weak (number of rats): second figure of cell
Description: To assess behavioral depression in rats as induced by vanillin, male and female rats, five of each gender at each dose, were given doses of vanillin of 50, 100 or 200 mg/kg, respectively, or a control vehicle (0.9% sodium chloride in water) by intravenous (i.v.) infusion. Therefore, there were four groups of rats with ten rats per group tested at each dosage. The solution was infused into a tail vein through a butterfly cannula, with the infusion being performed at a constant rate over a 5-minute period using a Harvard infusion pump.
The evaluations were performed on days 1, 3, 5 and 9 of vanillin administration.

mice [4] = assay: Pentobarbital-induced loss of righting reflex ("sleep") in mice (Example 2); type: in vivo
Description: The depressant effect of vanillin on mice was investigated by examining the effect of vanillin on pentobarbital-induced loss of righting reflex. Groups of mice (six to fourteen mice per group) were designated to receive a dose of vanillin of 50, 100, 200 or 300 mg/kg, or a control vehicle (0.9% sodium chloride in water). Fifty (50) mg/kg I.p. (intraperitoneally)injected pentobarbital was administered to each mouse of each group, and each mouse was also concurrently given the dose of vanillin (50, 100, 200 or 300 mg/kg) or the control vehicle, depending on its grouping, by s.c. (subcutaneous) injection.
The effects of vanillin on the onset and duration of "sleep" induced by the pentobarbital were observed. […] Means and standard errors of values for onset and duration of "sleep" were determined for each experimental group. Each vanillin-treated group was compared with its concomitantly tested control group (treated with saline in lieu of vanillin) for evaluating the statistical significance of vanillin effect.

rats [5] = details: cited from earlier work
[6] = 50 mg/kg i.v., day 1, <2 min, 10 rats per group
[7] = highest dose (200 mg/kg i.v.), day 1
[8] = highest dose (200 mg/kg i.v.), days 5 and 9

COc1cc(C=O)ccc1O [vanillin, 4-hydroxy-3-methoxybenzaldehyde]
protection versus Metrazol-induced seizures (mice [1]; 300 mg/kg): some protection | anticonvulsant activity (mice [1]; particularly at higher doses, data of Table 5): some mild anticonvulsant activity | Death (mice [1]; vanillin 200 mg/kg i.p.): 2/6 | Tonic Convulsion (mice [1]; vanillin 200 mg/kg i.p.): 5/6 | Death (mice [1]; vanillin 300 mg/kg i.p.): 0/6 | Tonic Convulsion (mice [1]; vanillin 300 mg/kg i.p.): 1/6 | metabolism and excretion (man): converted to vanillic acid in the liver and is excreted in the urine | Death (mice [2]; 1-second electroshock (vehicle 1/5)): 0/5 | Tonic Convulsion (mice [2]; 1-second electroshock (vehicle 5/5)): 4/5 | Ambulation Absent (number of rats) (rats [3]; 50 mg/kg i.v., day 1, 10 min): 0 | Sign of depression: Score > 0 (number of rats) (rats [3]; 50 mg/kg i.v., day 1, 10 min, 10 rats per group): 0 | Grip Absent (number of rats) (rats [3]; 50 mg/kg i.v., day 1, 10 min): 0 | Grip Weak (number of rats) (rats [3]; 50 mg/kg i.v., day 1, 10 min): 0 | Ambulation Absent (number of rats) (rats [3]; 50 mg/kg i.v., day 1, 20 min): 0 | Sign of depression: Score > 0 (number of rats) (rats [3]; 50 mg/kg i.v., day 1, 20 min, 10 rats per group): 0 | Grip Absent (number of rats) (rats [3]; 50 mg/kg i.v., day 1, 20 min): 0 | Grip Weak (number of rats) (rats [3]; 50 mg/kg i.v., day 1, 20 min): 0 | Ambulation Absent (number of rats) (rats [3]; 50 mg/kg i.v., day 1, 30 min): 0 | Sign of depression: Score > 0 (number of rats) (rats [3]; 50 mg/kg i.v., day 1, 30 min, 10 rats per group): 0 | Grip Absent (number of rats) (rats [3]; 50 mg/kg i.v., day 1, 30 min): 0 | Grip Weak (number of rats) (rats [3]; 50 mg/kg i.v., day 1, 30 min): 0 | Ambulation Absent (number of rats) (rats [3]; 50 mg/kg i.v., day 1, 45 min): 0 | Sign of depression: Score > 0 (number of rats) (rats [3]; 50 mg/kg i.v., day 1, 45 min, 10 rats per group): 0 | Grip Absent (number of rats) (rats [3]; 50 mg/kg i.v., day 1, 45 min): 0 | Grip Weak (number of rats) (rats [3]; 50 mg/kg i.v., day 1, 45 min): 0 | Ambulation Absent (number of rats) (rats [3]; [6]): 0 | Grip Absent (number of rats) (rats [3]; [6]): 0 | Grip Weak (number of rats) (rats [3]; [6]): 1 | Sign of depression: Score > 0 (number of rats) (rats [3]; 50 mg/kg i.v., day 1, <2 min after treatment, 10 rats per group): 0 | Ambulation Absent (number of rats) (rats [3]; 100 mg/kg i.v., day 1, 10 min): 0 | Sign of depression: Score > 0 (number of rats) (rats [3]; 100 mg/kg i.v., day 1, 10 min, 10 rats per group): 0 | Grip Absent (number of rats) (rats [3]; 100 mg/kg i.v., day 1, 10 min): 0 | Grip Weak (number of rats) (rats [3]; 100 mg/kg i.v., day 1, 10 min): 2 | Ambulation Absent (number of rats) (rats [3]; 100 mg/kg i.v., day 1, 20 min): 0 | Sign of depression: Score > 0 (number of rats) (rats [3]; 100 mg/kg i.v., day 1, 20 min, 10 rats per group): 0 | Grip Absent (number of rats) (rats [3]; 100 mg/kg i.v., day 1, 20 min): 0 | Grip Weak (number of rats) (rats [3]; 100 mg/kg i.v., day 1, 20 min): 0 | Ambulation Absent (number of rats) (rats [3]; 100 mg/kg i.v., day 1, 30 min): 0 | Sign of depression: Score > 0 (number of rats) (rats [3]; 100 mg/kg i.v., day 1, 30 min, 10 rats per group): 0 | Grip Absent (number of rats) (rats [3]; 100 mg/kg i.v., day 1, 30 min): 0 | Grip Weak (number of rats) (rats [3]; 100 mg/kg i.v., day 1, 30 min): 0 | Ambulation Absent (number of rats) (rats [3]; 100 mg/kg i.v., day 1, 45 min): 0 | Sign of depression: Score > 0 (number of rats) (rats [3]; 100 mg/kg i.v., day 1, 45 min, 10 rats per group): 0 | Grip Absent (number of rats) (rats [3]; 100 mg/kg i.v., day 1, 45 min): 0 | Grip Weak (number of rats) (rats [3]; 100 mg/kg i.v., day 1, 45 min): 0 | Ambulation Absent (number of rats) (rats [3]; 100 mg/kg i.v., day 1, <2 min): 0 | Grip Absent (number of rats) (rats [3]; 100 mg/kg i.v., day 1, <2 min): 0 | Grip Weak (number of rats) (rats [3]; 100 mg/kg i.v., day 1, <2 min): 6 | Sign of depression: Score > 0 (number of rats) (rats [3]; 100 mg/kg i.v., day 1, <2 min after treatment, 10 rats per group): 0 | Ambulation Absent (number of rats) (rats [3]; 200 mg/kg i.v., day 1, 10 min): 0 | Sign of depression: Score > 0 (number of rats) (rats [3]; 200 mg/kg i.v., day 1, 10 min, 10 rats per group): 0 | Grip Absent (number of rats) (rats [3]; 200 mg/kg i.v., day 1, 10 min): 0 | Grip Weak (number of rats) (rats [3]; 200 mg/kg i.v., day 1, 10 min): 8 | Ambulation Absent (number of rats) (rats [3]; 200 mg/kg i.v., day 1, 20 min): 0 | Sign of depression: Score > 0 (number of rats) (rats [3]; 200 mg/kg i.v., day 1, 20 min, 10 rats per group): 0 | Grip Absent (number of rats) (rats [3]; 200 mg/kg i.v., day 1, 20 min): 0 | Grip Weak (number of rats) (rats [3]; 200 mg/kg i.v., day 1, 20 min): 8 | Ambulation Absent (number of rats) (rats [3]; 200 mg/kg i.v., day 1, 30 min): 0 | Sign of depression: Score > 0 (number of rats) (rats [3]; 200 mg/kg i.v., day 1, 30 min, 10 rats per group): 0 | Grip Absent (number of rats) (rats [3]; 200 mg/kg i.v., day 1, 30 min): 0 | Grip Weak (number of rats) (rats [3]; 200 mg/kg i.v., day 1, 30 min): 5 | Ambulation Absent (number of rats) (rats [3]; 200 mg/kg i.v., day 1, 45 min): 0 | Sign of depression: Score > 0 (number of rats) (rats [3]; 200 mg/kg i.v., day 1, 45 min, 10 rats per group): 0 | Grip Absent (number of rats) (rats [3]; 200 mg/kg i.v., day 1, 45 min): 0 | Grip Weak (number of rats) (rats [3]; 200 mg/kg i.v., day 1, 45 min): 2 | Ambulation Absent (number of rats) (rats [3]; 200 mg/kg i.v., day 1, <2 min): 5 | Grip Absent (number of rats) (rats [3]; 200 mg/kg i.v., day 1, <2 min): 10 | Grip Weak (number of rats) (rats [3]; 200 mg/kg i.v., day 1, <2 min): 10 | Sign of depression: Score > 0 (number of rats) (rats [3]; 200 mg/kg i.v., day 1, <2 min after treatment, 10 rats per group): 3 | rats rated with depression scores above zero (rats [3]; days 5 and 9): no rats | time for diminished grip to return to normal (rats [3]; days 5 and 9, almost all rats with diminished grip): ≤ 20 min | tolerance to depressant effects (rats [3]; days 5 and 9, i.v.): some suggestion of tolerance | effect on grip strength (rats [3]; [7]): obliterated | persistence of slight effect on grip strength (rats [3]; [7]): ≥ 45 min | rats displaying absence of grip (rats [3]; [8]): 4 of 10 | rats exhibiting no muscular or motor impairment at all (rats [3]; [8]): 1 | time for return of ability to walk (rats [3]; i.v., highest dose 200 mg/kg, day 1, some of the rats): less than 10 minutes | persistence of eye closure (rats [3]; intermediate and high dose groups i.v., several rats): up to 45 minutes | time to appearance of eye closure (rats [3]; intermediate and high dose groups i.v., several rats, typically): ≤ 10 min | effect on grip strength (rats [3]; intermediate dose (100 mg/kg i.v.), day 1): weakened in most rats | effects on righting reflex and on motor coordination (rats [3]; vanillin given alone, rats): mild and transient | duration of loss of righting reflex (mice [4]; 100 to 300 mg/kg along with pentobarbital): markedly increased and enhanced | effect on barbituate-induced loss of righting reflex (mice [4]; lower dose, 50 mg/kg): appeared to lessen the barbituate effect | Duration of "Sleep" (mean + SEM) (mice [4]; vanillin 50 mg/kg s.c. + pentobarbital 50 mg/kg i.p., * p<0.05 vs control (vehicle 31.0 ± 3.79)): 20.3 ± 1.09 min | Duration of "Sleep" (mean + SEM) (mice [4]; vanillin 100 mg/kg s.c. + pentobarbital 50 mg/kg i.p. (vehicle 36.5 ± 4.67)): 47.6 ± 4.48 min | Onset of "sleep" (mean + SEM) (mice [4]; vanillin 200 mg/kg s.c. + pentobarbital 50 mg/kg i.p. (vehicle 3.5 ± 0.87)): 2.8 ± 0.97 min | Duration of "Sleep" (mean + SEM) (mice [4]; vanillin 200 mg/kg s.c. + pentobarbital 50 mg/kg i.p., ** p<0.001 vs control (vehicle 27.4 ± 3.34)): 62.9 ± 5.05 min | Onset of "sleep" (mean + SEM) (mice [4]; vanillin 300 mg/kg s.c. + pentobarbital 50 mg/kg i.p. (vehicle 4.3 ± 0.97)): 3.3 ± 0.23 min | Duration of "Sleep" (mean + SEM) (mice [4]; vanillin 300 mg/kg s.c. + pentobarbital 50 mg/kg i.p., ** p<0.001 vs control (vehicle 39.6 ± 6.57)): 102.1 ± 5.71 min | oral LD50 (rats [5]): 1580 mg/kg
